Results as given in article PMC9838390, “Discovery and biosynthesis of karnamicins as angiotensin converting enzyme inhibitors” (Nature Communications, 2023).

Tested on: KnmB2
Experiment: Hydrogen peroxide formation assay of KnmB2 and variants
Type: biochemical, L. rhizosphaerae NEAU-A2
Procedure: Hydrogen peroxide formation assay and NADPH oxidation
The hydrogen peroxide formed from KnmB1, KnmB2 and their variants were measured using the Hydrogen Peroxide Assay Kit (Beyotime Industrial Co. Ltd, Shanghai, China)4-5. 5–100 µL of enzyme reaction mixture was added to 100 µL of working reagent (S0038-1). The mixture was incubated for 30 min at 25 °C, at which time the absorbance at 560 nm was measured by NanoDrop 2000c (Fisher Scientific). […]
Spectral data for new compounds […]
Supplementary Figure 131. H2O2 generation and NADPH oxidation for KnmB2, KnmB1 and their variants. (a) Hydrogen peroxide formation of KnmB2 and variants. […]
(1 picture or pasted object on this page, not shown here) […]
H2O2 generation for KnmB2 and variants in the presence 24 or 32. Reaction conditions (h-j) for KnmB2 and their variants: 50 mM Tris-HCl buffer (pH 7.5), 0.15 mM NADPH, 2 μM KnmB2 or variants, or 0.1 mM substrate 24/32. Values are the means ± SD of n = 3 independent experiments, except for KnmB2+24 (T = 40 min), KnmB2-N219D+24 (T = 4 min), KnmB2-Y215F+24 (T= 1 min and 3 min) in i and j, and KnmB2+32 (T= 8 min) in j (n = 2). Source data are provided as a Source Data file. […]

CC(C)CCCCc1nc(-c2cc(O)cc(C(N)=O)n2)cs1 [Compound 24]
hydrogen peroxide formation of KnmB2 (absorbance UV λ=560 nm), average value (Fig. S131a, 1 mM NADPH, 16 μM KnmB2, 0.1 mM compound, 30 °C, 3 h, average of 3): 0.5988
H2O2 generation, average value (KnmB2+24, Time 0): 0.0000 µM
H2O2 generation, average value (KnmB2+24, Time 1): 7.6218 µM
H2O2 generation, average value (KnmB2+24, Time 2): 12.4635 µM
H2O2 generation, average value (KnmB2+24, Time 3): 16.9204 µM
H2O2 generation, average value (KnmB2+24, Time 4): 22.1791 µM
H2O2 generation, average value (KnmB2+24, Time 5): 26.8239 µM
H2O2 generation, average value (KnmB2+24, Time 8): 38.8438 µM
H2O2 generation, average value (KnmB2+24, Time 10): 44.6588 µM
H2O2 generation, average value (KnmB2+24, Time 15): 53.6376 µM
H2O2 generation, average value (KnmB2+24, Time 20): 56.0339 µM
H2O2 generation, average value (KnmB2+24, Time 30): 65.5374 µM
H2O2 generation, average value (KnmB2+24, Time 40): 57.4770 µM
H2O2 generation, average value (KnmB2+24, Time 60): 60.9452 µM
H2O2 generation, average value (KnmB2-N219D+24, Time 0): 0.0000 µM
H2O2 generation, average value (KnmB2-N219D+24, Time 2): 1.0964 µM
H2O2 generation, average value (KnmB2-N219D+24, Time 4): 1.8460 µM
H2O2 generation, average value (KnmB2-N219D+24, Time 5): 1.9569 µM
H2O2 generation, average value (KnmB2-N219D+24, Time 8): 2.8926 µM
H2O2 generation, average value (KnmB2-N219D+24, Time 10): 3.8614 µM
H2O2 generation, average value (KnmB2-N219D+24, Time 15): 5.8462 µM
H2O2 generation, average value (KnmB2-N219D+24, Time 20): 7.3014 µM
H2O2 generation, average value (KnmB2-N219D+24, Time 30): 11.0201 µM
H2O2 generation, average value (KnmB2-N219D+24, Time 40): 14.2037 µM
H2O2 generation, average value (KnmB2-N219D+24, Time 60): 17.9462 µM
H2O2 generation, average value (KnmB2-Y215F+24, Time 0): 0.0000 µM
H2O2 generation, average value (KnmB2-Y215F+24, Time 1): 2.6203 µM
H2O2 generation, average value (KnmB2-Y215F+24, Time 2): 4.3765 µM
H2O2 generation, average value (KnmB2-Y215F+24, Time 3): 4.8322 µM
H2O2 generation, average value (KnmB2-Y215F+24, Time 4): 7.3420 µM
H2O2 generation, average value (KnmB2-Y215F+24, Time 5): 8.5825 µM
H2O2 generation, average value (KnmB2-Y215F+24, Time 8): 12.4110 µM
H2O2 generation, average value (KnmB2-Y215F+24, Time 10): 14.9169 µM
H2O2 generation, average value (KnmB2-Y215F+24, Time 15): 20.6983 µM
H2O2 generation, average value (KnmB2-Y215F+24, Time 20): 27.2428 µM
H2O2 generation, average value (KnmB2-Y215F+24, Time 30): 36.5225 µM
H2O2 generation, average value (KnmB2-Y215F+24, Time 40): 40.7285 µM
H2O2 generation, average value (KnmB2-Y215F+24, Time 60): 52.7400 µM
